Assay results reported in US8828985B2, “Carbamate and urea inhibitors of 11-beta-hydroxysteroid dehydrogenase 1” (Vitae Pharmaceuticals, Inc., priority 2008, dated 2014).

Target: human 11β-HSD1 (Homo sapiens, UniProt P28845)
Assay: biochemical
Settings: for inhibition at 0.1 µM: 1.5 h, read-out: Biological Test Example 2 Average % inhibition at 100 nm, at 100 nm; for IC50: Biological Test Example 2 IC50 Range, microsomes from CHO cells overexpressing human 11β-HSD1, SPA
Method: All reactions are carried out at room temperature in 96 well clear flexible PET Microbeta plates (PerkinElmer). […] The reaction is stopped by adding 50 μl of the SPA beads suspension containing 10 μM 18β-glycyrrhetinic acid, 5 mg/ml protein A coated YSi SPA beads (GE Healthcare) and 3.3 μg/ml of anti-cortisol antibody (East Coast Biologics) in Superblock buffer (Bio-Rad). The plates are then shaken for 120 minutes at room temperature, and the SPA signal corresponding to [^3H]cortisol is measured on a Microbeta plate reader.

human 11β-HSD1, sequence (P28845 whole entry): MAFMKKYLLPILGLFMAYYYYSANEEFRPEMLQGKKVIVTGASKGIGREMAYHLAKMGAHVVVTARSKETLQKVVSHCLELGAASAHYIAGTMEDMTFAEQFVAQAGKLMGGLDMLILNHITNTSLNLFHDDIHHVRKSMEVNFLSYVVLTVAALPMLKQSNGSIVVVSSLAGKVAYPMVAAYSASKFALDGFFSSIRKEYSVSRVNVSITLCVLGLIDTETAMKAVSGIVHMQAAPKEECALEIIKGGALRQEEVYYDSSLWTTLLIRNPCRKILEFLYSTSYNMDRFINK

| SMILES | inhibition at 0.1 µM [%] | IC50 [nM] |
| --- | --- | --- |
| O=C(NC1CC1)c1ccc2nc(N[C@@H]3CCN(C(=O)O[C@H]4C5CC6CC4C[C@](O)(C6)C5)C3)sc2c1 [Example 103, (R)-(trans-1-hydroxy-4-adamantyl) 3-(6-(cyclopropylcarbamoyl)benzo[d]thiazol-2-ylamino)pyrrolidine-1-carboxylate] | 88.8 | < 100 |
| N#Cc1ccc(N[C@@H]2CCN(C(=O)O[C@H]3C[C@H]4CC[C@@H](C3)N4C(N)=O)C2)nc1 [Example 105, (3R)-8-carbamoyl-8-azabicyclo[3.2.1]octan-3-yl 3-(5-cyanopyridin-2-ylamino)pyrrolidine-1-carboxylate] | 14.8 | > 100 |
| CS(=O)(=O)N1C2CCC1CC(NC(=O)N1CC[C@@H](Nc3ccc(C#N)cn3)C1)C2 (stereo partly drawn) [Example 106, (3R)-3-(5-cyanopyridin-2-ylamino)-N-(8-(methylsulfonyl)-8-azabicyclo[3.2.1]octan-3-yl)pyrrolidine-1-carboxamide] | 3.9 | > 100 |
| COC(=O)c1cnc(N[C@@H]2CCN(C(=O)O[C@H]3C4CC5CC3C[C@](O)(C5)C4)C2)nc1 [Example 107, Methyl 2-((R)-1-((trans-1-hydroxy-4-adamantyloxy)carbonyl)pyrrolidin-3-ylamino)pyrimidine-5-carboxylate] | – | < 100 |
| O=C(O)c1cnc(N[C@@H]2CCN(C(=O)O[C@H]3C4CC5CC3C[C@](O)(C5)C4)C2)nc1 [Example 108, 2-((R)-1-((trans-1-hydroxy-4-adamantyloxy)carbonyl)pyrrolidin-3-ylamino)pyrimidine-5-carboxylic acid] | 14.2 | > 100 |
| NC(=O)c1cnc(N[C@@H]2CCN(C(=O)O[C@H]3C4CC5CC3C[C@](O)(C5)C4)C2)nc1 [Example 109, (R)-(trans-1-hydroxy-4-adamantyl) 3-(5-carbamoylpyrimidin-2-ylamino)pyrrolidine-1-carboxylate] | 50.1 | < 100 |
| CNC(=O)c1cnc(N[C@@H]2CCN(C(=O)O[C@H]3C4CC5CC3C[C@](O)(C5)C4)C2)nc1 [Example 110, (R)-(trans-1-hydroxy-4-adamantyl) 3-(5-(methylcarbamoyl)pyrimidin-2-ylamino)pyrrolidine-1-carboxylate] | 32.2 | > 100 |
| CN(C)C(=O)c1cnc(N[C@@H]2CCN(C(=O)O[C@H]3C4CC5CC3C[C@](O)(C5)C4)C2)nc1 [Example 111, (R)-(trans-1-hydroxy-4-adamantyl) 3-(5-(dimethylcarbamoyl)pyrimidin-2-ylamino)pyrrolidine-1-carboxylate] | 33.5 | > 100 |
| O=C(NC1CC1)c1cnc(N[C@@H]2CCN(C(=O)O[C@H]3C4CC5CC3C[C@](O)(C5)C4)C2)nc1 [Example 112, (R)-(trans-1-hydroxy-4-adamantyl) 3-(5-(cyclopropylcarbamoyl)pyrimidin-2-ylamino)pyrrolidine-1-carboxylate] | 33.3 | > 100 |
| CC(C)(C)OC(=O)NC1(C(F)(F)F)CCN(C(=O)O[C@H]2C3CC4CC2C[C@](C(N)=O)(C4)C3)C1 (stereo partly drawn) [Example 113, (trans-1-carbamoyl-4-adamantyl) 3-(tert-butoxycarbonylamino)-3-(trifluoromethyl)pyrrolidine-1-carboxylate] | 92 | < 100 |
| NC(=O)C12CC3CC(C1)C(OC(=O)N1CC[C@@H](Nc4ccc(F)cn4)C1)C(C3)C2 (some centres unmarked) [Example 115] | 95.2 | < 100 |
| N#Cc1ccc(N[C@@H]2CCN(C(=O)O[C@H]3C4CC5CC3C[C@](C(N)=O)(C5)C4)C2)nn1 [Example 116, (R)-(trans-1-carbamoyl-4-adamantyl) 3-(6-cyanopyridazin-3-ylamino)pyrrolidine-1-carboxylate] | 71.4 | < 100 |
